Measurements: the supplement of paper PMC13380429

Legend:
Conditions in all cases: 72 h
Caco-2 [1] = test: cell viability relative to DMSO; higher = less toxic
Calu-3 [2] = test: as above
HepG2 [3] = test: as above
U2OS [4] = test: as above
Vero E6 [5] = test: as above
Caco-2 [6] = test: relative viability EC50 (midpoint between 100% and the lowest measured viability); higher = less toxic
Calu-3 [7] = test: as above
HepG2 [8] = test: as above
U2OS [9] = test: as above
Vero E6 [10] = test: as above
Caco-2 [11] = test: drug sensitivity score (DSS) for viability; higher = more toxic; extreme values may be limits of the assay
Calu-3 [12] = test: as above
HepG2 [13] = test: as above
U2OS [14] = test: as above
Vero E6 [15] = test: as above

| SMILES | cell viability (Caco-2 [1]; 1 nM) | cell viability (Caco-2 [1]; 10 nM) | cell viability (Caco-2 [1]; 100 nM) | cell viability (Caco-2 [1]; 1000 nM) | cell viability (Caco-2 [1]; 10000 nM) | cell viability (Calu-3 [2]; 1 nM) | cell viability (Calu-3 [2]; 10 nM) | cell viability (Calu-3 [2]; 100 nM) | cell viability (Calu-3 [2]; 1000 nM) | cell viability (Calu-3 [2]; 10000 nM) | cell viability (HepG2 [3]; 1 nM) | cell viability (HepG2 [3]; 10 nM) | cell viability (HepG2 [3]; 100 nM) | cell viability (HepG2 [3]; 1000 nM) | cell viability (HepG2 [3]; 10000 nM) | cell viability (U2OS [4]; 1 nM) | cell viability (U2OS [4]; 10 nM) | cell viability (U2OS [4]; 100 nM) | cell viability (U2OS [4]; 1000 nM) | cell viability (U2OS [4]; 10000 nM) | cell viability (Vero E6 [5]; 1 nM) | cell viability (Vero E6 [5]; 10 nM) | cell viability (Vero E6 [5]; 100 nM) | cell viability (Vero E6 [5]; 1000 nM) | cell viability (Vero E6 [5]; 10000 nM) | relative viability EC50 (Caco-2 [6]) | relative viability EC50 (Calu-3 [7]) | relative viability EC50 (HepG2 [8]) | relative viability EC50 (U2OS [9]) | relative viability EC50 (Vero E6 [10]) | drug sensitivity score (Caco-2 [11]) | drug sensitivity score (Calu-3 [12]) | drug sensitivity score (HepG2 [13]) | drug sensitivity score (U2OS [14]) | drug sensitivity score (Vero E6 [15]) |
| --- | --- | --- | --- | --- | --- | --- | --- | --- | --- | --- | --- | --- | --- | --- | --- | --- | --- | --- | --- | --- | --- | --- | --- | --- | --- | --- | --- | --- | --- | --- | --- | --- | --- | --- | --- |
| CC1(C)CN2C(CS/C(=N\C3CCCCC3)NC3CCCCC3)=CSC2=N1 [IT1t] | 91.6% | 87.6% | 99.5% | 94.8% | 82% | 96.4% | 116% | 100% | 89.7% | 75.4% | 96.7% | 102% | 96.7% | 102% | 88.8% | 97.1% | 95.8% | 102% | 97.5% | 88.8% | 94.5% | 95.7% | 92.1% | 99.4% | 96.9% | > 10 µM | > 10 µM | > 10 µM | > 10 µM | > 10 µM | 0 | 2.2 | 0 | 0.1 | 0 |
| COc1ccccc1N1CCN(CCN2C(=O)c3ccccc3C(C)(C)C2=O)CC1 [ARC-239] | 102% | 101% | 91.3% | 98.2% | 92.6% | 105% | 104% | 100% | 102% | 95% | 107% | 95% | 106% | 102% | 97.3% | 96.8% | 95.3% | 97.9% | 101% | 95.9% | 104% | 95.2% | 102% | 102% | 103% | > 10 µM | > 10 µM | > 10 µM | > 10 µM | > 10 µM | 0 | 0 | 0 | 0 | 0 |
| Cc1noc(NS(=O)(=O)c2cccc3c(N(C)C)cccc23)c1C | 80.6% | 103% | 96.7% | 91.7% | 105% | 97.7% | 104% | 95.4% | 97.3% | 103% | 99.6% | 96% | 108% | 94.5% | 110% | 93.5% | 101% | 100% | 100% | 103% | 103% | 92.8% | 98.3% | 90.5% | 103% | > 10 µM | > 10 µM | > 10 µM | > 10 µM | > 10 µM | 0 | 0 | 0 | 0 | 0 |
| C[C@@H]1O[C@@H](OC[C@H]2O[C@@H](Oc3c(-c4ccc(O)c(O)c4)oc4cc(O)cc(O)c4c3=O)[C@H](O)[C@@H](O)[C@@H]2O)[C@H](O)[C@H](O)[C@H]1O [rutin] | 118% | 98.9% | 115% | 101% | 113% | 107% | 90.4% | 102% | 85.9% | 101% | 104% | 101% | 86% | 106% | 98.1% | 101% | 107% | 96.1% | 98.5% | 102% | 98.6% | 100% | 98.8% | 111% | 104% | > 10 µM | > 10 µM | > 10 µM | > 10 µM | > 10 µM | 0 | 0 | 0 | 0 | 0 |
| CCC(=O)c1cc(-c2ccc(Cl)cc2)n(-c2ccc(S(N)(=O)=O)cc2)c1C | 101% | 91.1% | 107% | 96.5% | 89.7% | 96.6% | 97.4% | 103% | 102% | 103% | 105% | 102% | 102% | 122% | 91.5% | 103% | 99.6% | 99.3% | 96.4% | 102% | 103% | 104% | 98.4% | 101% | 91.2% | > 10 µM | > 10 µM | > 10 µM | > 10 µM | > 10 µM | 0 | 0 | 0 | 0 | 0 |
| CCS(=O)(=O)N1CCC([C@@H](C)n2c(C)c(C(=O)NCc3c(OC)cc(C)[nH]c3=O)c3ccccc32)CC1 [CPI-169] | 95.8% | 94.7% | 101% | 100% | 95% | 97.3% | 102% | 98.7% | 94.3% | 97.4% | 104% | 103% | 104% | 94.3% | 101% | 92.1% | 101% | 99.3% | 105% | 102% | 100% | 96.7% | 96.9% | 99.7% | 103% | > 10 µM | > 10 µM | > 10 µM | > 10 µM | > 10 µM | 0 | 0 | 0 | 0 | 0 |
| CCCCC(=O)N(Cc1ccc(-c2ccccc2-c2nnn[nH]2)cc1)[C@H](C(=O)O)C(C)C [valsartan] | 92% | 94.3% | 88.6% | 102% | 96% | 103% | 108% | 95.6% | 102% | 90.9% | 107% | 101% | 93.4% | 97.3% | 103% | 101% | 98.8% | 96.9% | 97.2% | 101% | 101% | 99.8% | 98.1% | 100% | 99.9% | > 10 µM | > 10 µM | > 10 µM | > 10 µM | > 10 µM | 0 | 0 | 0 | 0 | 0 |
| CC(C)C[C@@H](N)C(=O)N[C@H]1C(=O)N[C@@H](CC(N)=O)C(=O)N[C@H]2C(=O)N[C@H]3C(=O)N[C@H](C(=O)N[C@H](C(=O)O)c4cc(O)cc(O)c4-c4cc3ccc4O)[C@H](O)c3ccc(c(Cl)c3)Oc3cc2cc(c3O[C@@H]2O[C@H](CO)[C@@H](O)[C@H](O)[C@H]2O[C@H]2C[C@](C)(N)[C@H](O)[C@H](C)O2)Oc2ccc(cc2Cl)[C@H]1O [norvancomycin] | 91.9% | 93.8% | 104% | 95.7% | 98.5% | 102% | 100% | 104% | 97.9% | 91.9% | 102% | 95.8% | 97.3% | 86.9% | 97.7% | 100% | 104% | 96.6% | 102% | 102% | 109% | 94.8% | 102% | 97% | 104% | > 10 µM | > 10 µM | > 10 µM | > 10 µM | > 10 µM | 0 | 0 | 0 | 0 | 0 |
| CC[C@H](C)[C@@H]1NC(=O)[C@H](Cc2ccc(OC)cc2)NC(=O)CCCSC[C@@H](C(=O)N2CCC[C@H]2C(=O)N[C@@H](CC(C)C)C(=O)NCC(N)=O)NC(=O)[C@H](CC(N)=O)NC(=O)[C@H](CCC(N)=O)NC1=O [carbetocin] | 99.7% | 98.6% | 97.3% | 90.5% | 87.4% | 103% | 104% | 102% | 106% | 75.7% | 103% | 103% | 91.3% | 99.7% | 93.3% | 94.9% | 91.3% | 98.4% | 95.2% | 100% | 104% | 104% | 99.3% | 101% | 95.8% | > 10 µM | > 10 µM | > 10 µM | > 10 µM | > 10 µM | 0.3 | 0.6 | 0 | 0 | 0 |
| CC1(C)CCC2=C(O1)c1ccccc1C(=O)C2=O [beta-lapachone] | 101% | 96.5% | 91.9% | 96.3% | 29.9% | 109% | 91.4% | 110% | 106% | 91.2% | 107% | 99.3% | 94.4% | 99.5% | 7.5% | 106% | 100% | 101% | 96.5% | 21.5% | 104% | 105% | 101% | 102% | 91.6% | 2.75 µM | > 10 µM | 3.12 µM | 2.83 µM | > 10 µM | 4.4 | 0 | 5.2 | 4.8 | 0 |
| O=C1NCCN1c1ncc([N+](=O)[O-])s1 [niridazole] | 105% | 80.1% | 93.2% | 87.8% | 102% | 99.6% | 107% | 96.6% | 88% | 103% | 105% | 98.8% | 105% | 106% | 97.8% | 97.1% | 98.7% | 99.3% | 94.8% | 99.8% | 102% | 104% | 108% | 115% | 85.5% | > 10 µM | > 10 µM | > 10 µM | > 10 µM | > 10 µM | 0 | 0 | 0 | 0 | 0.1 |
| Cc1[nH]c(/C=C2\C(=O)Nc3ccccc32)c(C)c1CCC(=O)O [orantinib] | 101% | 96.9% | 102% | 104% | 97.5% | 98.8% | 104% | 107% | 106% | 99.2% | 98.3% | 103% | 106% | 98.7% | 100% | 98.1% | 94.3% | 101% | 99.1% | 98.4% | 107% | 103% | 103% | 96.2% | 98.1% | > 10 µM | > 10 µM | > 10 µM | > 10 µM | > 10 µM | 0 | 0 | 0 | 0 | 0 |
| Cc1cccc(C#Cc2ccccc2)n1 [MPEP] | 98.7% | 94.5% | 98.1% | 102% | 95% | 91.5% | 95.5% | 88.2% | 89.6% | 91.1% | 98.8% | 94.6% | 101% | 101% | 103% | 103% | 100% | 98.6% | 103% | 94% | 98.1% | 94.9% | 96.6% | 97.1% | 95% | > 10 µM | > 10 µM | > 10 µM | > 10 µM | > 10 µM | 0 | 0.1 | 0 | 0 | 0 |
